≈ marks a conversion by molar mass, not a printed value.
How the values were obtained:
[1] = Evaluation of oil solubility of dutasteride; assay type: physicochemical; details: for solubility at 24 h: oil or lipid, thermodynamic from solid
Method: In order to measure the solubility of dutasteride in oil, the solubility of dutasteride in glycerol tricaprylate, glycerol tricaprylate/caprate, glycerol tricaprylate/caprate/linoleate, propylene glycol dicaprylocaprate, propylene glycol dicaprate, propylene glycol dicaprylate and propylene glycol monolaurate was measured. In a 10 mL vial, a magnetic bar was placed. After 3 mL of the oil was added thereto, approximately 100 mg of dutasteride was added thereto while stirring under a room temperature (25° C.) condition, and the resultant mixture was stirred at 500 rpm or higher. After stirring for 24 hours, 1 mL of the resultant mixture was taken and separated using a centrifuge, and only a supernatant was taken to quantify an amount of dutasteride dissolved in the oil using liquid chromatography.

[2] = Stability of dutasteride depending on oil type (degradation products); assay type: physicochemical
Method: In Test Example 2, in order to identify the stability of dutasteride in oil, the oil and dutasteride are mixed at a ratio of about 10 to 1, and then a stability test is carried out under an accelerated and stress condition, and a percentage of generated unknown degradation products with respect to the active ingredient is calculated to confirm whether degradation products are generated or not.
In order to identify the stability of dutasteride in mono- and di-glyceride of caprylic/capric acid used as an oil phase of AVODART®, an existing commercially-available formulation, the stability of dutasteride was compared under the stress condition (50° C., 95% RH) and the accelerated condition (40° C., 75% RH). In the comparison test, a sample prepared by dissolving 1.0 mg of dutasteride in 10.0 mg of propylene glycol monocaprylate and stored in a transparent vial and a sample prepared by dissolving 1.0 mg of dutasteride in 10.0 mg of mono- and di-glyceride of caprylic/capric acid and stored in a transparent vial were used.

A solubility at 24 h ([1]; glycerol tricaprylate (oil), in glycerol tricaprylate, 25° C., stirring 24 hours) of 840 µg/mL (≈ 1590 µM), a solubility at 24 h ([1]; glycerol tricaprylate/caprate/linoleate (oil), in glycerol tricaprylate/caprate/linoleate, 25° C., stirring 24 hours) of 220 µg/mL (≈ 416 µM) and a Solubility ([1]; in glycerol tricaprylate/caprate, 25° C., stirring 24 hours) of 810 µg/mL (≈ 1530 µM) were found for `C[C@]12C=CC(=O)N[C@@H]1CC[C@@H]1[C@@H]2CC[C@]2(C)[C@@H](C(=O)Nc3cc(C(F)(F)F)ccc3C(F)(F)F)CC[C@@H]12` [dutasteride, 17β-N-(2,5-bis(trifluoromethyl))phenylcarbamoyl-4-aza-5α-androst-1-en-3-one] in this work. For the same compound, the solubility at 24 h ([1]; propylene glycol dicaprylocaprate (oil), in propylene glycol dicaprylroccaprate, 25° C., stirring 24 hours) was 970 µg/mL (≈ 1840 µM), the “higher solubility in propylene glycol monolaurate compared to other tested oils” value ([1]; propylene glycol monolaurate vs other tested oils) was no less than 10 times and the “percentage of degradation products with respect to dutasteride” value (“percentage of degradation products” for short) ([2]; in mono- and di-glyceride of caprylic/capric acid, stress condition (50° C., 95% RH), Week 1) was “None”. For the same compound, the “percentage of degradation products” value ([2]; in mono- and di-glyceride of caprylic/capric acid, stress condition (50° C., 95% RH), Week 2) was “None”, the “percentage of degradation products” value ([2]; in mono- and di-glyceride of caprylic/capric acid, stress condition (50° C., 95% RH), Week 3) was “None” and the “percentage of degradation products” value ([2]; in propylene glycol monolaurate, accelerated condition (40° C., 75% RH), Week 4) was “not generated and None”. The “percentage of degradation products” value ([2]; in propylene glycol monolaurate, stress condition (50° C., 95% RH), Week 1) was “None”, the “percentage of degradation products” value ([2]; in propylene glycol monolaurate, stress condition (50° C., 95% RH), Week 2) was “None” and the “percentage of degradation products” value ([2]; in propylene glycol monolaurate, stress condition (50° C., 95% RH), Week 3) was “None”.

— patent US10561619B2, “Pharmaceutical composition comprising dutasteride and propylene glycol monolaurate and preparation method of the same” (Yuyu Pharma, Inc., priority 2015, dated 2020)
